Results taken from patent US20090068126A1, “Composition for surface photoprotection” (priority 2004, published 2009).

Assays:
[1] = test system: Saccharomyces cerevisiae yeast, wild type strain D273-10B; assay: Phototoxicity test in Saccharomyces cerevisiae yeast (in vitro); format: cell-based
Source text: The method applied was used by Freitas (Freitas, Z. M. F., I Ax, P. A., Dellamora-Ortiz, G. M., Santos, E. P., Gonçalves, J. C. S., S.T.P Pharma Sciences, 2000, 10 (3): 239-242) for the Saccharomyces cerevisiae yeast use, wild type strain D273-10B, at room temperature, which dense cell layer is not sensitive to the ultraviolet radiation among 320-390 nm (UVA), besides being innocuous.
The yeast growth was in a YPD medium, constituted by yeast extract (1%), peptone (2%), anhydrous glucose (2%), agar (2%). […] The studied substances were applied in 1 g % concentration in Wharman no. 1 sterile filter paper disks, and fixed on the surface of culture media plates. A S. cerevisiae suspension was prepared in sterilized water (10 mL). Aliquots of 0.2 mL were applied and spread in the culture plates using a glass loop. Two plates were prepared for each sample. After seeding and applying the samples, one plate was allowed to grow under two UVA lamps (320-390 nm). A control plate was grown in the dark. […]

[2] = test system: short hair line albino Guinea pigs; assay: Phototoxicity in vivo; design: species or system guinea pig; conditions: 0.1 g %, only in the irradiated area
Protocol: The tests are accomplished in short hair line albino Guinea pigs (n=4). Twenty-four hours before the application of the test substance to 5% [tween/ethanol/water (1:1:10)], the animals dorsal portion hair are chemically removed. Four application sites are chosen, at random: 2 areas for the test substance and other 2 for the methoxypsoralen phototoxic standard at 0.1 g %, following by the UVA radiation exposition, and a control area is protected from the light. After 24 and 48 hours, the observations are made as for the erythema edema formation (AGÊNCIA NACIONAL DE VIGILÂNCIA SANITÁRIA-Brazil, Guia para avaliaçãa de segurança de produtos cosméticos. 2003.; Freitas, Z. M. F., I Ax, P. A., Dellamora-Ortiz, G. M., Santos, E. P., Gonçalves, J. C. S., 2000, S.T.P Pharma Sciences, 10 (3) 239-242; Dinardo, J. C., Wolf, B. A., Morris, W. E., Tenenbaum, S., Schnetzinger, R. W., 1985, J. Soc. Cosmet. Chem., 36, 425-433).

COc1c2occc2cc2ccc(=O)oc12 [8-methoxypsoralen]
growth inhibition halo ([1]; 0.1 g % in ethanol, plates in the light and in the dark): presented growth inhibition halo in the light | phototoxic answer in the in vitro phototoxicity test ([1]; irradiated plate and plate with light absence): non-phototoxic | erythema degree ([2]; 24 hours): 1 | erythema degree ([2]; 48 hours): 2
